The structures appear in SMILES notation.

Sequence of ER (P03372 whole entry): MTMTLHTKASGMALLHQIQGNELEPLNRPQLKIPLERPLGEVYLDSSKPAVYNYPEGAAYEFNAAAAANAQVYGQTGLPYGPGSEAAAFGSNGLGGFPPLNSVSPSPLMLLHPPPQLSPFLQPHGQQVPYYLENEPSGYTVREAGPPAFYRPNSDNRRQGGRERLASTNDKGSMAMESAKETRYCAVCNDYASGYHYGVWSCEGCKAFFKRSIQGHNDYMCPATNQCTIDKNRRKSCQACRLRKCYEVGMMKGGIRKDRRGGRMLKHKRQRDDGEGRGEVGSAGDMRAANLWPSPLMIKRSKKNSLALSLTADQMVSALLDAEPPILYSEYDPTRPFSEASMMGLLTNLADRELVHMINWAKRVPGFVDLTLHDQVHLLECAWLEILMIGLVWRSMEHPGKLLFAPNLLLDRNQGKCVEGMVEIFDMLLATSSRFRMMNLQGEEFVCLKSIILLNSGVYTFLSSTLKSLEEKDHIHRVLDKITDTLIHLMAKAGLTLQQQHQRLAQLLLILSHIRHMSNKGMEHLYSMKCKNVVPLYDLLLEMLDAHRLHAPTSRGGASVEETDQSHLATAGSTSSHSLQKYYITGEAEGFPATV

The assay addresses ER (Homo sapiens (Human), UniProt P03372). The assay is described as follows: Western blot analysis (Compounds B1-B278). In kind it is cell-based. The following applies: ER degradation by traditional Western blot; DC50 classes. In short, it runs like this:
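Relative target-protein levels come from densitometry of immunoblots, normalized to GAPDH. Lysates from treated cells were prepared in RIPA buffer (pH 7.6) containing protease inhibitors, and equal protein amounts, checked by BCA, were separated on 10% gels and blotted onto PVDF.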
A general note: Immunoblotting shows a protein as a band on a membrane.
As for `C[C@@H]1Cc2c([nH]c3ccccc23)[C@@H](c2c(F)cc(N3CCC4(CCN(CC5Cc6cc7c(cc6C5)C(=O)N(C5CCC(=O)NC5=O)C7=O)CC4)CC3)cc2F)N1CC(F)(F)F` (stereo partly drawn) [Compound B204, 6-((9-(3,5-difluoro-4-((1R,3R)-3-methyl-2-(2,2,2-trifluoroethyl)-2,3,4,9-tetrahydro-1H-pyrido[3,4-b]indol-1-yl)phenyl)-3,9-diazaspiro[5.5]undecan-3-yl)methyl)-2-(2,6-dioxopiperidin-3-yl)-6,7-dihydrocyclopenta[f]isoindole-1,3(2H,5H)-dione], the “Traditional Western Degradation Potency” value is “C (“C”: >100 nM)”.

Consider `C[C@@H]1Cc2c([nH]c3ccccc23)[C@@H](c2c(F)cc(N3CCC4(CC3)CN(CC3Cc5cc6c(cc5C3)C(=O)N(C3CCC(=O)NC3=O)C6=O)C4)cc2F)N1CC(F)F` (stereo partly drawn) [Compound B205, 6-((7-(4-((1R,3R)-2-(2,2-difluoroethyl)-3-methyl-2,3,4,9-tetrahydro-1H-pyrido[3,4-b]indol-1-yl)-3,5-difluorophenyl)-2,7-diazaspiro[3.5]nonan-2-yl)methyl)-2-(2,6-dioxopiperidin-3-yl)-6,7-dihydrocyclopenta[f]isoindole-1,3(2H,5H)-dione], for which the “Traditional Western Degradation Potency” value was “C (“C”: >100 nM)”.

On to `C[C@@H]1Cc2c([nH]c3ccccc23)[C@@H](c2c(F)cc(N3CCC(C(=O)N4CCC(CN5Cc6cc7c(cc6C5)C(=O)N(C5CCC(=O)NC5=O)C7=O)CC4)CC3)cc2F)N1CC(F)F` (stereo partly drawn) [Compound B206, 6-((1-(1-(4-((1R,3R)-2-(2,2-difluoroethyl)-3-methyl-2,3,4,9-tetrahydro-1H-pyrido[3,4-b]indol-1-yl)-3,5-difluorophenyl)piperidine-4-carbonyl)piperidin-4-yl)methyl)-2-(2,6-dioxopiperidin-3-yl)-6,7-dihydropyrrolo[3,4-f]isoindole-1,3(2H,5H)-dione], for which the “Traditional Western Degradation Potency” value is given as “C (“C”: >100 nM)”.

Turning to `C[C@@H]1Cc2c([nH]c3ccccc23)[C@@H](c2c(F)cc(N3CCC(C(=O)N4CC(CN5Cc6cc7c(cc6C5)C(=O)N(C5CCC(=O)NC5=O)C7=O)C4)CC3)cc2F)N1CC(F)F` (stereo partly drawn) [Compound B207, 6-((1-(1-(4-((1R,3R)-2-(2,2-difluoroethyl)-3-methyl-2,3,4,9-tetrahydro-1H-pyrido[3,4-b]indol-1-yl)-3,5-difluorophenyl)piperidine-4-carbonyl)azetidin-3-yl)methyl)-2-(2,6-dioxopiperidin-3-yl)-6,7-dihydropyrrolo[3,4-f]isoindole-1,3(2H,5H)-dione], the “Traditional Western Degradation Potency” value was “B (“B”: 10-100 nM)”.

For the compound `C[C@@H]1Cc2c([nH]c3ccccc23)[C@@H](c2c(F)cc(N3CCC(C(=O)N4CC(N5Cc6cc7c(cc6C5)C(=O)N(C5CCC(=O)NC5=O)C7=O)C4)CC3)cc2F)N1CC(F)F` (stereo partly drawn) [Compound B208, 6-(1-(1-(4-((1R,3R)-2-(2,2-difluoroethyl)-3-methyl-2,3,4,9-tetrahydro-1H-pyrido[3,4-b]indol-1-yl)-3,5-difluorophenyl)piperidine-4-carbonyl)azetidin-3-yl)-2-(2,6-dioxopiperidin-3-yl)-6,7-dihydropyrrolo[3,4-f]isoindole-1,3(2H,5H)-dione], the “Traditional Western Degradation Potency” value was “C (“C”: >100 nM)”.

In the case of `C[C@@H]1Cc2c([nH]c3ccccc23)[C@@H](c2c(F)cc(N3CC(C(=O)N4CCC(N5Cc6cc7c(cc6C5)C(=O)N(C5CCC(=O)NC5=O)C7=O)CC4)C3)cc2F)N1CC(F)F` (stereo partly drawn) [Compound B209, 6-(1-(1-(4-((1R,3R)-2-(2,2-difluoroethyl)-3-methyl-2,3,4,9-tetrahydro-1H-pyrido[3,4-b]indol-1-yl)-3,5-difluorophenyl)azetidine-3-carbonyl)piperidin-4-yl)-2-(2,6-dioxopiperidin-3-yl)-6,7-dihydropyrrolo[3,4-f]isoindole-1,3(2H,5H)-dione], the “Traditional Western Degradation Potency” value is given as “C (“C”: >100 nM)”.

For `C[C@@H]1Cc2c([nH]c3ccccc23)[C@@H](c2c(F)cc(N3CC(C(=O)N4CCC(CN5Cc6cc7c(cc6C5)C(=O)N(C5CCC(=O)NC5=O)C7=O)CC4)C3)cc2F)N1CC(F)F` (stereo partly drawn) [Compound B210, 6-((1-(1-(4-((1R,3R)-2-(2,2-difluoroethyl)-3-methyl-2,3,4,9-tetrahydro-1H-pyrido[3,4-b]indol-1-yl)-3,5-difluorophenyl)azetidine-3-carbonyl)piperidin-4-yl)methyl)-2-(2,6-dioxopiperidin-3-yl)-6,7-dihydropyrrolo[3,4-f]isoindole-1,3(2H,5H)-dione], the “Traditional Western Degradation Potency” value was “C (“C”: >100 nM)”.

As to `C[C@@H]1Cc2c([nH]c3ccccc23)[C@@H](c2c(F)cc(N3CCC(CN4CCC(C(=O)N5Cc6cc7c(cc6C5)C(=O)N(C5CCC(=O)NC5=O)C7=O)CC4)CC3)cc2F)N1CC(F)F` (stereo partly drawn) [Compound B211, 6-(1-((1-(4-((1R,3R)-2-(2,2-difluoroethyl)-3-methyl-2,3,4,9-tetrahydro-1H-pyrido[3,4-b]indol-1-yl)-3,5-difluorophenyl)piperidin-4-yl)methyl)piperidine-4-carbonyl)-2-(2,6-dioxopiperidin-3-yl)-6,7-dihydropyrrolo[3,4-f]isoindole-1,3(2H,5H)-dione], the “Traditional Western Degradation Potency” value is “C (“C”: >100 nM)”.

As for `C[C@@H]1Cc2c([nH]c3ccccc23)[C@@H](c2c(F)cc(N3CCC(CN4CC(C(=O)N5Cc6cc7c(cc6C5)C(=O)N(C5CCC(=O)NC5=O)C7=O)C4)CC3)cc2F)N1CC(F)F` (stereo partly drawn) [Compound B212, 6-(1-((1-(4-((1R,3R)-2-(2,2-difluoroethyl)-3-methyl-2,3,4,9-tetrahydro-1H-pyrido[3,4-b]indol-1-yl)-3,5-difluorophenyl)piperidin-4-yl)methyl)azetidine-3-carbonyl)-2-(2,6-dioxopiperidin-3-yl)-6,7-dihydropyrrolo[3,4-f]isoindole-1,3(2H,5H)-dione], the “Traditional Western Degradation Potency” value is given as “C (“C”: >100 nM)”.

For the compound `C[C@@H]1Cc2c([nH]c3ccccc23)[C@@H](c2c(F)cc(N3CCC(CN4CCC(N5Cc6cc7c(cc6C5)C(=O)N(C5CCC(=O)NC5=O)C7=O)CC4)CC3)cc2F)N1CC(F)F` (stereo partly drawn) [Compound B213, 6-(1-((1-(4-((1R,3R)-2-(2,2-difluoroethyl)-3-methyl-2,3,4,9-tetrahydro-1H-pyrido[3,4-b]indol-1-yl)-3,5-difluorophenyl)piperidin-4-yl)methyl)piperidin-4-yl)-2-(2,6-dioxopiperidin-3-yl)-6,7-dihydropyrrolo[3,4-f]isoindole-1,3(2H,5H)-dione], the “Traditional Western Degradation Potency” value is “A (“A”: <10 nM)”.

Regarding `C[C@@H]1Cc2c([nH]c3ccccc23)[C@@H](c2c(F)cc(N3CCC(C(=O)N4CCC(N5Cc6cc7c(cc6C5)C(=O)N(C5CCC(=O)NC5=O)C7=O)CC4)CC3)cc2F)N1CC(C)(F)F` (stereo partly drawn) [Compound B214, 6-(1-(1-(4-((1R,3R)-2-(2,2-difluoropropyl)-3-methyl-2,3,4,9-tetrahydro-1H-pyrido[3,4-b]indol-1-yl)-3,5-difluorophenyl)piperidine-4-carbonyl)piperidin-4-yl)-2-(2,6-dioxopiperidin-3-yl)-6,7-dihydropyrrolo[3,4-f]isoindole-1,3(2H,5H)-dione], the “Traditional Western Degradation Potency” value is “A (“A”: <10 nM)”.

Consider `C[C@@H]1Cc2c([nH]c3ccccc23)[C@@H](c2c(F)cc(N3CCC4(CCN(C(=O)CN5Cc6cc7c(cc6C5)C(=O)N(C5CCC(=O)NC5=O)C7=O)CC4)CC3)cc2F)N1CC(C)(F)F` (stereo partly drawn) [Compound B215, 6-(2-(9-(4-((1R,3R)-2-(2,2-difluoropropyl)-3-methyl-2,3,4,9-tetrahydro-1H-pyrido[3,4-b]indol-1-yl)-3,5-difluorophenyl)-3,9-diazaspiro[5.5]undecan-3-yl)-2-oxoethyl)-2-(2,6-dioxopiperidin-3-yl)-6,7-dihydropyrrolo[3,4-f]isoindole-1,3(2H,5H)-dione], for which the “Traditional Western Degradation Potency” value is listed as “A (“A”: <10 nM)”.

`C[C@@H]1Cc2c([nH]c3ccccc23)[C@@H](c2cnc(N3CCC4(CCN(C(=O)CN5Cc6cc7c(cc6C5)C(=O)N(C5CCC(=O)NC5=O)C7=O)CC4)CC3)nc2)N1CC(F)(F)F` (stereo partly drawn) [Compound B216, 2-(2,6-dioxopiperidin-3-yl)-6-(2-(9-(5-((1R,3R)-3-methyl-2-(2,2,2-trifluoroethyl)-2,3,4,9-tetrahydro-1H-pyrido[3,4-b]indol-1-yl)pyrimidin-2-yl)-3,9-diazaspiro[5.5]undecan-3-yl)-2-oxoethyl)-6,7-dihydropyrrolo[3,4-f]isoindole-1,3(2H,5H)-dione]: the “Traditional Western Degradation Potency” value is recorded as “A (“A”: <10 nM)”.

Consider `C[C@@H]1Cc2c([nH]c3ccccc23)[C@@H](c2cnc(N3CCC4(CC3)CN(C(=O)CN3Cc5cc6c(cc5C3)C(=O)N(C3CCC(=O)NC3=O)C6=O)C4)nc2)N1CC(F)(F)F` (stereo partly drawn) [Compound B217, 2-(2,6-dioxopiperidin-3-yl)-6-(2-(7-(5-((1R,3R)-3-methyl-2-(2,2,2-trifluoroethyl)-2,3,4,9-tetrahydro-1H-pyrido[3,4-b]indol-1-yl)pyrimidin-2-yl)-2,7-diazaspiro[3.5]nonan-2-yl)-2-oxoethyl)-6,7-dihydropyrrolo[3,4-f]isoindole-1,3(2H,5H)-dione], for which the “Traditional Western Degradation Potency” value is listed as “A (“A”: <10 nM)”.

Turning to `C[C@@H]1Cc2c([nH]c3ccccc23)[C@@H](c2cnc(N3CCC(CN4CCC(N5Cc6cc7c(cc6C5)C(=O)N(C5CCC(=O)NC5=O)C7=O)CC4)CC3)nc2)N1CC(F)(F)F` (stereo partly drawn) [Compound B218, 2-(2,6-dioxopiperidin-3-yl)-6-(1-((1-(5-((1R,3R)-3-methyl-2-(2,2,2-trifluoroethyl)-2,3,4,9-tetrahydro-1H-pyrido[3,4-b]indol-1-yl)pyrimidin-2-yl)piperidin-4-yl)methyl)piperidin-4-yl)-6,7-dihydropyrrolo[3,4-f]isoindole-1,3(2H,5H)-dione], the “Traditional Western Degradation Potency” value is recorded as “B (“B”: 10-100 nM)”.

These data come from patent US20260007681A1, “INDOLE DERIVATIVES AS ESTROGEN RECEPTOR DEGRADERS” (REGENTS OF THE UNIVERSITY OF MICHIGAN, priority 2022, published 2026).
